In brackets after ≈: the same amount, converted by molar mass. Several values for one entry are separate records, joined by “and”; a condition that tells them apart may be missing. Equal values may be shown once. Read-outs that look alike come from different tables or passages of the source.
Assays:
MRS USA 300 = test: IC50, MIC and MBC against MRS USA 300; format: cell-based, Staphylococcus aureus
Procedure: (§1) As used herein, the term “minimum inhibitory concentration (MIC)” refers to the lowest concentration of an antimicrobial agent that will inhibit the visible growth of a microorganism after overnight incubation. MIC values against bacteria may be determined by standard methods. See also P. A. Wayne, Methods for Dilution Antimicrobial Tests for Bacteria that Grow Aerobically; Approved Standard, Ninth Edition, 2012, CLSI Document M07-A9, Vol. 32 No. 2, which is incorporated by reference herein in its entirety.

[1] = tested on: MRS 1708 (Mupirocin-resistant); test: IC50, MIC and MBC against MRS 1708 (Mupirocin-resistant); format: cell-based, Staphylococcus aureus; conditions: for IC50 / MBC / MIC: Staphylococcus aureus
Procedure: as §1

MRS 33591 [2] = test: IC50, MIC and MBC against MRS 33591; format: cell-based, Staphylococcus aureus
Procedure: as §1

MRS USA 400 = test: IC50, MIC and MBC against MRS USA 400; format: cell-based, Staphylococcus aureus
Procedure: as §1

S. aureus 29213 = test: IC50, MIC and MBC against S. aureus 29213; format: cell-based; conditions: Staphylococcus aureus; for IC50: 29213; for MIC: S. aureus 29213, tested Conc. in μg/mL, read-out: MIC
Procedure: As used herein, the term “minimum inhibitory concentration (MIC)” refers to the lowest concentration of an antimicrobial agent that will inhibit the visible growth of a microorganism after overnight incubation. MIC values against bacteria may be determined by standard methods.

MRS 33591 [3] = test: Growth inhibition of cannabinoid combinations, IC50s chosen for FICs, MRS 33591; format: cell-based; conditions: Staphylococcus aureus
MRS 1696 = test: Growth inhibition of cannabinoid combinations, IC50s chosen for FICs, MRS 1696; format: cell-based; conditions: Staphylococcus aureus
MRS 1708 = test: Growth inhibition of cannabinoid combinations, IC50s chosen for FICs, MRS 1708; format: cell-based; conditions: Staphylococcus aureus
MRS 1717 = test: Growth inhibition of cannabinoid combinations, IC50s chosen for FICs, MRS 1717; format: cell-based; conditions: Staphylococcus aureus
Mupirocin-resistant MRS = format: cell-based, Staphylococcus aureus; conditions: in combination with Mupirocin
[4] = MRS USA 300, tested Conc. in μg/mL
[5] = MRS USA 400, tested Conc. in μg/mL
[6] = read-out: IC50, Cannabidiol (CBD) + Cannabigerol (CBG)
[7] = read-out: IC50, Cannabidiol (CBD) + Cannabinol (CBN)
[8] = read-out: IC50, Cannabidiol (CBD) + Cannabigerol (CBG), IC50 of first-named cannabinoid at the fixed ug/mL of the second given in the label
[9] = read-out: IC50, Cannabidiol (CBD) + Cannabinol (CBN), IC50 of first-named cannabinoid at the fixed ug/mL of the second given in the label
[10] = MRS 33591, tested Conc. in μg/mL
[11] = read-out: IC50, Cannabinol (CBN) + Cannabigerol (CBG)
[12] = IC50 of first-named cannabinoid at the fixed ug/mL of the second given in the label, read-out: IC50, Cannabinol (CBN) + Cannabigerol (CBG)

Question: `C=C(C)[C@@H]1CCC(C)=C[C@H]1c1c(O)cc(CCCCC)cc1O` [CBD, Cannabidiol] was tested. Which MBC (MRS USA 300; [4]) did it give?
Answer: Its MBC is 3.33.

Question: What about the MIC (MRS USA 300; [4]) of the same compound?
Answer: The MIC was 1.67.

Question: And the IC50 (MRS USA 300; Staphylococcus aureus, USA300)?
Answer: The IC50 was 2.99 µM and 0.94 µg/mL.

Question: And the MBC (MRS USA 300; Staphylococcus aureus, USA300)?
Answer: Its MBC is 10.6 ± 4.58 µM (≈ 3.33 µg/mL).

Question: What about the MIC (MRS USA 300; Staphylococcus aureus, USA300) of the same compound?
Answer: The MIC was 5.31 ± 2.29 µM (≈ 1.67 µg/mL).

Question: And the IC50 [1]?
Answer: Its IC50 is 2.86 µM and 0.9 µg/mL.

Question: And the MBC [1]?
Answer: The MBC was 10.6 ± 4.58 µM (≈ 3.33 µg/mL).

Question: And the MIC [1]?
Answer: The MIC was 5.31 ± 2.29 µM (≈ 1.67 µg/mL).

Question: And the IC50 (MRS 33591 [2]; Staphylococcus aureus)?
Answer: Its IC50 is 3.24 µM and 1.02 µg/mL.

Question: And the MIC (MRS 33591 [2]; Staphylococcus aureus)?
Answer: The MIC was 6.61 µM and 2.08 µg/mL.

Question: And the MIC (MRS USA 400; [5])?
Answer: The MIC was 2.5 ± 0.

Question: And the IC50 (MRS USA 400; Staphylococcus aureus, USA400)?
Answer: The IC50 was 3.69 µM and 1.16 µg/mL.

Question: What about the MIC (MRS USA 400; Staphylococcus aureus, USA400) of the same compound?
Answer: Its MIC is 7.95 µM (≈ 2.5 µg/mL).

Question: And the IC50 (S. aureus 29213)?
Answer: Its IC50 is 1.16 µg/mL (≈ 3.69 µM).

Question: And the MIC (S. aureus 29213)?
Answer: Its MIC is 2.08 µg/mL (≈ 6.61 µM).

Question: What about the IC50 (MRS 33591 [3]; [6]) of the same compound?
Answer: Its IC50 is 1.23 µg/mL.

Question: What about the IC50 (MRS 33591 [3]; [7]) of the same compound?
Answer: Its IC50 is 1.28 µg/mL.

Question: What about the IC50 (MRS 1696; [6]) of the same compound?
Answer: The IC50 was 1.28 µg/mL.

Question: And the IC50 (MRS 1696; [7])?
Answer: Its IC50 is 1.36 µg/mL.

Question: And the IC50 (MRS 1708; [8])?
Answer: The IC50 was 0.96 µg/mL.

Question: And the IC50 (MRS 1708; [9])?
Answer: The IC50 was 1.06 µg/mL.

Question: What about the IC50 (MRS 1717; [6]) of the same compound?
Answer: Its IC50 is 0.864 µg/mL.

Question: What about the IC50 (MRS 1717; [7]) of the same compound?
Answer: The IC50 was 1.1 µg/mL.

Question: What about the “effect of combination with Mupirocin” value (Mupirocin-resistant MRS) of the same compound?
Answer: The value was “no effect”.

Question: What does the source list for `CCCCCc1cc(O)c(C/C=C(\C)CCC=C(C)C)c(O)c1` [CBG, Cannabigerol]?
Answer: MIC (MRS USA 300; [4]): 1.67; IC50 (MRS USA 300; Staphylococcus aureus, USA300): 2.43 µM and 0.77 µg/mL; MBC (MRS USA 300; Staphylococcus aureus, USA300): > 63 µM; MIC (MRS USA 300; Staphylococcus aureus, USA300): 5.28 ± 2.27 µM (≈ 1.67 µg/mL); IC50 [1]: 2.34 µM and 0.74 µg/mL; MBC [1]: > 63 µM; MIC [1]: 3.95 µM (≈ 1.25 µg/mL); MBC (MRS 33591 [2]; [10]): 3.75; IC50 (MRS 33591 [2]; Staphylococcus aureus): 2.31 µM and 0.73 µg/mL; MBC (MRS 33591 [2]; Staphylococcus aureus): 11.8 ± 5.59 µM (≈ 3.75 µg/mL); MIC (MRS 33591 [2]; Staphylococcus aureus): 3.95 µM and 1.25 µg/mL; MIC (MRS USA 400; [5]): 1.67; IC50 (MRS USA 400; Staphylococcus aureus, USA400): 2.72 µM and 0.86 µg/mL; MBC (MRS USA 400; Staphylococcus aureus, USA400): > 63 µM; MIC (MRS USA 400; Staphylococcus aureus, USA400): 5.28 ± 2.27 µM (≈ 1.67 µg/mL); IC50 (S. aureus 29213): 0.75 µg/mL (≈ 2.37 µM); MIC (S. aureus 29213): 1.25 µg/mL (≈ 3.95 µM); IC50 (MRS 33591 [3]; [6]): 1.08 µg/mL; IC50 (MRS 33591 [3]; [11]): 1.05 µg/mL; IC50 (MRS 1696; [6]): 0.9 µg/mL; IC50 (MRS 1696; [11]): 0.896 µg/mL; IC50 (MRS 1708; [12]): 0.872 µg/mL; IC50 (MRS 1708; [8]): 0.959 µg/mL; IC50 (MRS 1717; [6]): 0.741 µg/mL; IC50 (MRS 1717; [11]): 0.911 µg/mL; effect of combination with Mupirocin (Mupirocin-resistant MRS): no effect

Question: For `CCCCCc1cc(O)c2c(c1)OC(C)(C)c1ccc(C)cc1-2` [CNB, Cannabinol], which MBC (MRS USA 300; [4]) is on record?
Answer: Its MBC is 3.33.

Question: And the MIC (MRS USA 300; [4])?
Answer: Its MIC is 2.5 ± 0.

Question: And the IC50 (MRS USA 300; Staphylococcus aureus, USA300)?
Answer: The IC50 was 3.32 µM and 1.03 µg/mL.

Question: What about the MBC (MRS USA 300; Staphylococcus aureus, USA300) of the same compound?
Answer: The MBC was 10.7 ± 4.64 µM (≈ 3.33 µg/mL).

Question: And the MIC (MRS USA 300; Staphylococcus aureus, USA300)?
Answer: The MIC was 8.05 µM (≈ 2.5 µg/mL).

Question: And the AMC ([1]; Mupirocin-resistant MRS (Table 11))?
Answer: The AMC was 2.08 ± 0.72.

Question: What about the IC50 [1] of the same compound?
Answer: The IC50 was 2.77 µM and 0.86 µg/mL.

Question: What about the MBC [1] of the same compound?
Answer: Its MBC is 6.7 ± 2.32 µM (≈ 2.08 µg/mL).

Question: And the MIC [1]?
Answer: The MIC was 5.38 ± 7.32 µM (≈ 1.67 µg/mL).

Question: What about the MBC (MRS 33591 [2]; [10]) of the same compound?
Answer: Its MBC is 4.17.

Question: And the IC50 (MRS 33591 [2]; Staphylococcus aureus)?
Answer: The IC50 was 2.48 µM and 0.77 µg/mL.

Question: What about the MBC (MRS 33591 [2]; Staphylococcus aureus) of the same compound?
Answer: Its MBC is 13.4 ± 4.64 µM (≈ 4.17 µg/mL).

Question: What about the MIC (MRS 33591 [2]; Staphylococcus aureus) of the same compound?
Answer: The MIC was 4.03 µM and 1.25 µg/mL.

Question: And the MBC (MRS USA 400; [5])?
Answer: Its MBC is 5.83 ± 3.82.

Question: And the MIC (MRS USA 400; [5])?
Answer: The MIC was 2.5 ± 0.

Question: And the IC50 (MRS USA 400; Staphylococcus aureus, USA400)?
Answer: The IC50 was 4.16 µM and 1.29 µg/mL.

Question: What about the MBC (MRS USA 400; Staphylococcus aureus, USA400) of the same compound?
Answer: Its MBC is 18.8 ± 12.3 µM (≈ 5.83 µg/mL).

Question: What about the MIC (MRS USA 400; Staphylococcus aureus, USA400) of the same compound?
Answer: The MIC was 8.05 µM (≈ 2.5 µg/mL).

Question: What about the IC50 (S. aureus 29213) of the same compound?
Answer: The IC50 was 0.92 µg/mL (≈ 2.96 µM).

Question: And the MIC (S. aureus 29213)?
Answer: Its MIC is 1.67 µg/mL (≈ 5.38 µM).

Question: What about the IC50 (MRS 33591 [3]; [7]) of the same compound?
Answer: Its IC50 is 1.09 µg/mL.

Question: And the IC50 (MRS 33591 [3]; [11])?
Answer: The IC50 was 1.11 µg/mL.

Question: What about the IC50 (MRS 1696; [7]) of the same compound?
Answer: The IC50 was 1.5 µg/mL.

Question: What about the IC50 (MRS 1696; [11]) of the same compound?
Answer: Its IC50 is 1.32 µg/mL.

Question: What about the IC50 (MRS 1708; [12]) of the same compound?
Answer: The IC50 was 1.07 µg/mL.

Question: And the IC50 (MRS 1708; [9])?
Answer: Its IC50 is 0.956 µg/mL.

Question: And the IC50 (MRS 1717; [7])?
Answer: The IC50 was 0.908 µg/mL.

Question: And the IC50 (MRS 1717; [11])?
Answer: Its IC50 is 1.11 µg/mL.

Question: What about the “effect of combination with Mupirocin” value (Mupirocin-resistant MRS) of the same compound?
Answer: Its value is “no effect”.

Source: patent US20210315837A1, “CANNABINOIDS FOR THE TREATMENT OF GRAM-POSITIVE INFECTIONS INCLUDING ANTIBIOTIC-RESISTANT BACTERIAL STRAINS” (priority 2018, published 2021)
